Results: US5922740A, “Heterocyclylcarbonyl substituted benzofuranyl-ureas” (Bayer Aktiengesellschaft, priority 1995, dated 1999)

Tests used:
human monocytes = assay: Endotoxin induced TNF release; type: cell-based; conditions: LPS 2 μg ml^-1, 18 to 24 hours, ELISA
Procedure: 7. Preparation of Human Monocytes
Blood was taken from normal donors. Monocytes were isolated from peripheral blood by density centrifugation, followed by centrifugal elutriation.
8. Endotoxin Induced TNF Release
Monocytes (1×10^6 ml^-1) were stimulated with LPS (2 μg ml^-1) and coincubated with the compounds at different concentrations (10^-4 to 10 μg ml^-1) Compounds were dissolved in DMSO/medium (2% v/v). The cells were incubated in RPMI-1640 medium glutamine/FCS supplemented and at 37° C. in a humidified atmosphere with 5% CO2. After 18 to 24 hours TNF was determined in the supernatants by an human TNF specific ELISA (medgenix). Controls were nonstimulated and LPS stimulated monocytes without compounds. Example 2, 13 and 16 induce inhibition of LPS driven TNF activity in human monocytes (IC50 : 10^-3 to 1 μg ml^-1).

B6D2F1 mice = assay: Endotoxin induced shock lethality in mice; type: in vivo; conditions: galactosamine-sensitized mice, LPS 0.01 μg/mouse; compound intravenously 1 hour prior LPS, doses of 3 to 30 mg/kg
Procedure: 9. Endotoxin Induced Shock Lethality in Mice
B6D2F1 mice (n=10) were sensitized with galactosamine (600 mg/kg), and shock and lethality were triggered by LPS (0.01 μg/mouse). The compounds were administered intravenously 1 hour prior LPS. Controls were LPS challenged mice without compound. Mice were dying 8 to 24 hours post LPS challenge. Example 2, 13 and 16 reduced the endotoxin medicated mortality about 70% to 100% at doses of 3 to 30 mg/kg.

SMILES	IC50, inhibition of LPS driven TNF activity (human monocytes)	reduction of endotoxin mediated mortality (B6D2F1 mice)
Cc1ccc2c(NC(N)=O)c(C(=O)c3cccnc3)oc2c1 [Example 16]	10^-3 to 1 μg ml^-1	70% to 100
COc1ccc2c(NC(N)=O)c(C(=O)c3ccncc3)oc2c1 [Example 2]	10^-3 to 1 μg ml^-1	70% to 100
CC[n+]1ccc(C(=O)c2oc3cc(OC)ccc3c2NC(N)=O)cc1 [Example 13]	10^-3 to 1 μg ml^-1	70% to 100
